{"source": "patent US20040156920A1", "about": "“Extracts from plant and non-plant biomass and uses thereof” (priority 2000, published 2004)", "origin": "cited, not measured here", "key": {"[1]": {"test_system": "classical complement pathway"}, "[2]": {"test_system": "male albino rats", "details": "20 mg/kg body weight daily subcutaneous"}, "[3]": {"test_system": "human blood PMN cells", "parameters": "phagocytosis at higher concentration: dose or concentration left out as unconfirmed"}}, "data": [{"compound": "CC1(C)[C@@H](O)CC[C@]2(C)[C@H]3C(=O)C=C4[C@H]5C[C@@](C)(C(=O)O)CC[C@]5(C)CC[C@@]4(C)[C@]3(C)CC[C@@H]12", "note": "[Beta-glycyrrhetinic acid]", "values": [{"measurement": "IC50", "setting": "[1]", "value": 35, "unit": "µM"}]}, {"compound": "CCCCCCCCCCCC1=C(O)C(=O)C=C(O)C1=O", "note": "[embelin]", "values": [{"measurement": "sperm count and other fertility parameters", "setting": "[2]", "value": "inhibition of sperm count and other fertility parameters"}]}, {"compound": "Wheat germ agglutinin", "values": [{"measurement": "phagocytosis at higher concentration", "setting": "[3]", "value": "strongly inhibited phagocytosis"}, {"measurement": "promotion of phagocytosis compared to Zymosan-A control", "setting": "[3]; 0.5-1.0 mg/ml", "value": 1.8, "unit": "times"}]}]}
